Test results taken from patent US8026221B2, “Method, composition and kit for antigenic binding of norwalk-like viruses” (Children's Hospital Medical Center, priority 2002, dated 2011).

System: NV
Assay: Binding of synthetic histo-blood antigen with NLV after glycosidase digestion
Set-up: species or system Norwalk Virus
Settings: after digestion with α-N-acetylgalactosaminidase
Text: Thus, the corresponding NLV could not be bound.

Substance: GalNAc-α1→3 (Fuc-α1→2) Gal β-O-space) nBSA [A trisaccharide-BSA]
- Binding with NLV after removal of the antigenic determinant sugar epitope: losses binding
